Data reported in PMC9389255 (Heliyon, 2022).

How the values were obtained:
[1] = Precipitation of DMSO-dissolved compounds upon mixing in phosphate buffer; type: physicochemical
[2] = tested on: α-Glucosidase from Saccharomyces cerevisiae; experiment: In vitro inhibition assay for α-glucosidase activity; type: biochemical
[3] = tested on: α-Glucosidase from Saccharomyces cerevisiae; experiment: Inhibitory kinetic analysis; type: biochemical; conditions: Lineweaver-Burk plots
[4] = printed in the column IC50 against α-amylase
[5] = printed in the column IC50 against α-glucosidase

Compound | Precipitated at (in vial) [1, 4] | Precipitated at (in vial) [1, 5] | inhibition pattern against α-glucosidase [3] | other results
O=c1c(O)c(-c2ccc(O)cc2)oc2cc(O)cc(O)c12 [Kaempferol] | Precipitated at 80 μM (in vial) | Precipitated at 80 μM (in vial) |  | inhibitory activity on α-glucosidase ([2]; at ≤80 μM): no inhibitory activity
C[C@H]1O[C@H](O[C@H]2[C@H](O)[C@@H](O)[C@@H](O[C@H]3[C@H](O)[C@@H](O)C(O)O[C@@H]3CO)O[C@@H]2CO)[C@H](O)[C@@H](O)[C@@H]1N[C@H]1C=C(CO)[C@@H](O)[C@H](O)[C@H]1O (stereo partly shown) [Acarbose, reference compound] |  |  | competitive inhibition pattern | 
O=c1c(O)c(-c2cc(O)c(O)c(O)c2)oc2cc(O)cc(O)c12 [Myricetin] |  |  | mixed inhibition patterns | 

Second part, led by results:

Precipitated at (in vial) [1, 4] | Precipitated at (in vial) [1, 5] | inhibition pattern against α-glucosidase [3] | Compound | other results
Precipitated at 400 μM (in vial) | Precipitated at 400 μM (in vial) |  | O=c1cc(-c2ccccc2)oc2cc(O)cc(O)c12 [Chrysin] | inhibitory activity on α-glucosidase ([2]; at ≤400 μM): no inhibitory activity
 |  | mixed inhibition patterns | O=c1c(O)c(-c2ccc(O)c(O)c2)oc2cc(O)cc(O)c12 [Quercetin] | 
 |  | mixed inhibition patterns | O=c1cc(-c2ccc(O)c(O)c2)oc2cc(O)cc(O)c12 [Luteolin] | 
Precipitated at 1000 μM (in vial) | Precipitated at 1000 μM (in vial) |  | O=c1cc(-c2ccc(O)cc2)oc2cc(O)cc(O)c12 [Apigenin] | inhibitory activity on α-glucosidase ([2]; at ≤1000 μM): no inhibitory activity
